According to ChEMBL document CHEMBL1201862, “PubChem BioAssay data set” (2004):
Calls of active or inactive are those of the source.

Key:
Insulin-degrading enzyme = target: T1, Insulin-degrading enzyme (Homo sapiens, UniProt P14735); test: recombinant IDE activation, cell-free – biochemical, fluorescence polarization, counter-screen for IDE activator project, dose response (AID 588681)
T1 sequence (P14735 whole entry): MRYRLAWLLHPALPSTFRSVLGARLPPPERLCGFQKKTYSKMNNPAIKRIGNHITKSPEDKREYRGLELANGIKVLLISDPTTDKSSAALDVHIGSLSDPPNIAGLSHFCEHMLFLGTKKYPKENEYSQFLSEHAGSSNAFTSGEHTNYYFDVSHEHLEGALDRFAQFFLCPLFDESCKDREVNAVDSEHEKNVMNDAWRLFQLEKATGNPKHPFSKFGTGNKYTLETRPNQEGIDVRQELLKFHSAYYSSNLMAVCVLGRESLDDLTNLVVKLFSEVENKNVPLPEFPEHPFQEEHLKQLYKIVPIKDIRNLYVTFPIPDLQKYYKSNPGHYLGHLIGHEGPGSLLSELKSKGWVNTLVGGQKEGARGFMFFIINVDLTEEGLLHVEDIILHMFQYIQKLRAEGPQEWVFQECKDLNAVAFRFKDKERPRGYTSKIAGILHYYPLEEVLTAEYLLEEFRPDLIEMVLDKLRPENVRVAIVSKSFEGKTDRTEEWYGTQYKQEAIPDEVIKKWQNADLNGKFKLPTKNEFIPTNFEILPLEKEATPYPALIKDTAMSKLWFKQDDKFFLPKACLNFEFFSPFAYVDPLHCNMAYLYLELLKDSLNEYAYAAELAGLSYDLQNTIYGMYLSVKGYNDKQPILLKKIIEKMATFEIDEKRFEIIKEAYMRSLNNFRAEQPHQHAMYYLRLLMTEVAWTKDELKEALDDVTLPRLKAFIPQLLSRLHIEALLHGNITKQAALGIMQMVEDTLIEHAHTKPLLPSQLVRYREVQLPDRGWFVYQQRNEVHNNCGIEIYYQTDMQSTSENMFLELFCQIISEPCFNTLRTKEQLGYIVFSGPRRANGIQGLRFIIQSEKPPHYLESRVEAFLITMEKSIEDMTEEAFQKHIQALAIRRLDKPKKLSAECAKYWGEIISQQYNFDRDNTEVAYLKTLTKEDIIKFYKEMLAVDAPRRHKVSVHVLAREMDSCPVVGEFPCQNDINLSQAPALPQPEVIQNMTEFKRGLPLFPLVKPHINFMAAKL

[1] = target: T2, Replicative DNA helicase DnaB (Mycobacterium tuberculosis, UniProt P9WMR3); test: DnaB intein splicing inhibitors, dose response, biochemical, cell-free fluorescence (AID 449749); format: functional
T2 sequence (P9WMR3 whole entry): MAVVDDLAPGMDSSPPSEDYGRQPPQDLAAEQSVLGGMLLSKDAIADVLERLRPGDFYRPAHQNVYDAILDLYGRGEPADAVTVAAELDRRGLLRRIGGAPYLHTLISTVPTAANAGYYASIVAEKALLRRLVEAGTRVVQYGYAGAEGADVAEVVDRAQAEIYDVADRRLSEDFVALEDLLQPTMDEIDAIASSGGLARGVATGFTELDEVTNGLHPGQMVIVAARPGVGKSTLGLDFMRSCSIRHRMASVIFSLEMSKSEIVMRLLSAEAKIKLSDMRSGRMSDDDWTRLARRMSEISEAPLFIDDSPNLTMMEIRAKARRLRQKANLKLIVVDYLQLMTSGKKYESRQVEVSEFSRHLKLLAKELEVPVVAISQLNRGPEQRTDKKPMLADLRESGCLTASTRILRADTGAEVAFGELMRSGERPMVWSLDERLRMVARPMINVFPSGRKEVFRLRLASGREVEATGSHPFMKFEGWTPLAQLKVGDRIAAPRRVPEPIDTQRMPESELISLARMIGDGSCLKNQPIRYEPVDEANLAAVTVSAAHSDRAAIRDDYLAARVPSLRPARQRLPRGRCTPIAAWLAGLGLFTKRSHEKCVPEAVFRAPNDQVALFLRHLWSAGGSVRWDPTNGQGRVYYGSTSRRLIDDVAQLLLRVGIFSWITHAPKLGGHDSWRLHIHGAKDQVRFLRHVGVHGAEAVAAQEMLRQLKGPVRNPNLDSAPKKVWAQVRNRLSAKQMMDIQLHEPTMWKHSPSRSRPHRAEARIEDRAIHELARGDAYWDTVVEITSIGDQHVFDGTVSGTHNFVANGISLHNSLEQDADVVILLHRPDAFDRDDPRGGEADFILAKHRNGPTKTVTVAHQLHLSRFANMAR

[2] = target: T3, Tyrosine-protein phosphatase non-receptor type 22 (Homo sapiens, UniProt Q9Y2R2); format: functional;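 note: confirmatory dose-response retest of primary uHTS hits for inhibition of LYP phosphatase, measured by a fluorescence intensity read-out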
T3 sequence (Q9Y2R2 whole entry): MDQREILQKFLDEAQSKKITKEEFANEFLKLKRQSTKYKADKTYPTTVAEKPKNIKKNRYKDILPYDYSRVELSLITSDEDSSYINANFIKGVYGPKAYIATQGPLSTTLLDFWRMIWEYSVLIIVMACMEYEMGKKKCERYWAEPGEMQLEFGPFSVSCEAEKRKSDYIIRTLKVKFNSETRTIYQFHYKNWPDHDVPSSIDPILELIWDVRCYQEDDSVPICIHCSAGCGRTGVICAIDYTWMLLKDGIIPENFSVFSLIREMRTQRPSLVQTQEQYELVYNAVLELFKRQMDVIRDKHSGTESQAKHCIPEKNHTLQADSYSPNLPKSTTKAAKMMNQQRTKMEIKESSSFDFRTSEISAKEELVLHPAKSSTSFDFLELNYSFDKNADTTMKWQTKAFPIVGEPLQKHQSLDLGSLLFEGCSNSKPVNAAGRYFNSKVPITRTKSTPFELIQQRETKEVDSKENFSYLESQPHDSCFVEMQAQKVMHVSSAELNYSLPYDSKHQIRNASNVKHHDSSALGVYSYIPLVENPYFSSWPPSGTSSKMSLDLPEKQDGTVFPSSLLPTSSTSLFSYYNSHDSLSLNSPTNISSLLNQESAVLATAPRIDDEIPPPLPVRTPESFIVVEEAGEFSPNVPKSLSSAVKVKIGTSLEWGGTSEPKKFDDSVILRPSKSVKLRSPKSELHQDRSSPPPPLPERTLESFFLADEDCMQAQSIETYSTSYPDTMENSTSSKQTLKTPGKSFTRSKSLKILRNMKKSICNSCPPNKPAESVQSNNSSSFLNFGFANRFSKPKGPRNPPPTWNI

[3] = target: T4, Carboxy-terminal domain RNA polymerase II polypeptide A small phosphatase 1 (Homo sapiens, UniProt Q9GZU7); test: CTDSP1 inhibitors, concentration-response, biochemical, absorbance readout, ultra-high-throughput screen actives (AID 540297); format: functional
T4 sequence (Q9GZU7 whole entry): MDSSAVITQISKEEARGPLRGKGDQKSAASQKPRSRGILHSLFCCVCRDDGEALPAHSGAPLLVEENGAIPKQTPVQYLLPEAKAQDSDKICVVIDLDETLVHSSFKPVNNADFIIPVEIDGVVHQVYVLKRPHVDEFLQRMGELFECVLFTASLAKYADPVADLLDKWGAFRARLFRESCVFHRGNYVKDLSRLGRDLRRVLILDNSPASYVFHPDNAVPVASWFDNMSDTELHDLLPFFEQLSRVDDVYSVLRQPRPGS

SMILES: O=c1oc2c(O)cccc2cc1-c1nc2ccccc2[nH]1
- EC50 (Insulin-degrading enzyme): > 54.7 µM (inactive)

SMILES: CCOC(=O)c1ccc(Nc2cc3ccccc3c(O)n2)cc1
- AC50 [1]: 11.1 µM (active)

SMILES: CCOC(=O)c1sc2nc3c(SCC(=O)O)cc(C(=O)c4ccccc4O)cn3c(=O)c2c1C
- IC50 [2]: < 1.24 µM (active)
- IC50 [3]: 14.8 µM (active)
